Values of other authors as cited in article PMC5527824 (Frontiers in bioscience (Scholar edition), 2015).

What was measured:
[1] = rat, in vivo, po; cited from earlier work
[2] = cited from earlier work
[3] = test system: PC12 cells; conditions: of ~30 flavonoids tested; cited from earlier work
[4] = test system: nerve cell; conditions: of ~30 flavonoids tested; cited from earlier work

Structure (SMILES)	differentiation of PC12 cells (neurotrophic activity) [3]	other results
O=c1cc(-c2ccccc2)oc2cc(O)c(O)c(O)c12 [baicalein]	–	levels of free and conjugated flavonoid [1]: ≤ 1000 nM
COc1cc(-c2oc3cc(O)ccc3c(=O)c2O)ccc1O [geraldol, 3,4′,7-trihydroxy-3′-methoxyflavone]	–	activity in several biological assays [2]: as active as fisetin
COc1cc(-c2oc3cc(O)cc(O)c3c(=O)c2O)ccc1O [isorhamnetin]	some differentiation-inducing activity	–
O=c1cc(-c2ccc(O)c(O)c2)oc2cc(O)cc(O)c12 [luteolin]	some differentiation-inducing activity	–
O=c1c(O)c(-c2ccc(O)c(O)c2)oc2cc(O)cc(O)c12 [quercetin, reference compound]	some differentiation-inducing activity	maintenance of GSH levels in the presence of oxidative stress [4]: able to maintain GSH levels
